The source of these data is patent US6784192B2, “Piperidine compound and pharmaceutical composition thereof” (Eisai Co., Ltd., priority 2000, dated 2004).

Experiment [1] has as its system rabbit atrial muscle. Description: Assessment for rabbit atrial muscle, Vmax. As to conditions: Test Example 4, right atrial muscle, stimulation frequency 4 Hz, 15 minutes. How it is done: The specimen of the right atrial muscle which was enucleated from rabbit was used for the present experiment. The electrical stimulation was applied for the right atrial muscle which was enucleated, under conditions: a stimulation duration of 1 mess; a stimulation frequency of 4 Hz; and a stimulation intensity of about 1.2-fold of the threshold. The stimulation was provided from 30 minutes to 60 minutes before start of the experiment, and the condition of the specimen was stabilized. The action potential was recorded according to a glass microelectrode method. 3 M KCl was charged in the glass electrode, inserted in the specimen of the right atrium, and the action potential was recorded. Vmax is the parameter of the maximum upstroke slope of the action potential recorded, and a value which was automatically calculated by an action potential analysis soft (CAPA 1.23 manufactured by Physiotec. Co., Ltd.) was used. After the action potential in a normal Tyrode solution was recorded as control, the action potential after flowing the tested substances at respective concentrations for 15 minutes was recorded. The action of the tested substance for Vmax was calculated as an IC50 value.

Experiment [2] relates to sodium channel of synaptosome of rat cerebral cortex. Description: Assessment for sodium channel of synaptosome of rat cerebral cortex (SBFI). It is filed as cell-based. How it is done:
In the present experiment the synaptosome which was extracted from rat cerebral cortex was used. After sodium ion-sensitive dye, SBFI was taken in, the synaptosome was reacted with the respective tested substances (3 samples in 6 concentrations) at room temperature for 15 minutes in a 96 wells plate. The sodium channel inhibitory activity was measured using FDSS2000 of HAMAMATSU Photonics Co., Ltd. The sodium ion concentration in the synaptosome was measured once per 5 seconds using the fluorescent intensity of SBFI as an index. After measuring the control value 10 times, Veratridine was added so that the final concentration was 20 μM, and further measurement was carried out 30times. The inhibitory activity value of the tested substances for sodium channel was calculated, setting the action only by a measurement solution without the tested substance, as 0%, and the inhibitory activity caused by 2 μM of TTX which was a positive control, as 100%, as an inhibitory activity value corresponding to this action, using the increase of the fluorescent intensity of SBFI to the control value which was generated after addition of Veratridine, as an index.

The subject of experiment [3] is spontaneous nerve discharge of cut left saphenous nerve. Briefly: Suppression of spontaneous nerve discharge (ectopic firing). It is filed as in vivo. The following applies: Test Example 5, rat, intravenous catheter, urethane anesthetized; for ED50: read-out: Ectopic Firing (ID50 mg/kg). How it is done:
In order to assess the suppression action for spontaneous nerve discharge, the experiment was carried out by a method below, referring to “Burchiel, K J., Exp. Nuerol., 102, 249-253 (1988)”. Namely, for the rat in which spontaneous discharge was observed, the left saphenous nerve was cut off nearby knee articulatio before 1 week or more, and around 3 mm of the nerve was cut off so that the nerve was not adhered again. The left saphenous nerve was exposed under urethane (1 g/kg body weight) anesthetized, and about 1 cm of adjacent portion from the cut portion was peeled from a periphery tissue. Further, a catheter was preliminarily inserted in the vein of a right neck for administration of a compound. The peeled nerve was mounted on a platinum hook electrode, and liquid paraffin was put on it so that the nerve was not dried. The electrode was connected with a fine electrode amplifier, and the value was recorded on a computer through an AD/converter from an oscilloscope. The nerve discharge recorded was assessed by the number of ignition per 10 seconds using an analysis soft (AcqKnowledge).

Setting [4] is: read-out: SBFI (IC50 μM); Test Example 3; Veratridine 20 μM; 2 μM TTX as 100%.
Where [5] appears, read: Test Example 3; Veratridine 20 μM; 2 μM TTX as 100%; read-out: SBFI (IC50 μM).

Where two headings read alike, the source gives them in different places.

In the case of `Cc1ccccc1CCC1CCN(Cc2ccc[nH]c2=O)CC1` [Example 285, 1-[(2-Oxo-1,2-dihydro-3-pyridinyl)methyl]-4-[2-(2-methylphenyl)ethyl]piperidine], the IC50 was determined as 2.9 µM in experiment [1] (Oryctolagus cuniculus, 0.25 h) and 7.7 µM in experiment [2] (setting [4]). In addition, the ED50 in experiment [3] was determined as 0.13 mg/kg.
As for `O=c1[nH]cc(Br)cc1CN1CCC(CCc2cccc3c2OCO3)CC1` [Example 291, 1-[(5-Bromo-2-oxo-1,2-dihydro-3-pyridinyl)methyl]-4-[2-[2,3-(methylenedioxy)phenyl]ethyl]piperidine], the IC50 in experiment [1] is 6 µM; in experiment [2] (setting [5]), 14.5 µM. For the same compound, the “Ectopic Firing (ID50 mg/kg)” value in experiment [3] is 0.1 mg/kg.
With `O=c1[nH]cc(Cl)cc1CN1CCC(CCc2ccccc2OCc2ccccc2)CC1` [Example 299], the IC50 worked out at 50 µM in experiment [1] (Oryctolagus cuniculus, 0.25 h) and 5.3 µM in experiment [2] (setting [4]). In experiment [3], the ED50 is 0.1 mg/kg.
In the same order, the values of `O=c1[nH]cc(Cl)cc1CN1CCC(CCc2ccccc2OCC2CCCCC2)CC1` [Example 301, 1-[(5-Chloro-2-oxo-1,2-dihydro-3-pyridinyl)methyl]-4-[2-[2-(cyclohexylmethyloxy)phenyl]ethyl]piperidine] are 100 µM, 6.5 µM and 0.18 mg/kg.
For the compound `O=C(O)C(=O)O.O=c1[nH]cccc1CN1CCC(CCc2ccccc2OCC2CCCCC2)CC1` [Example 302, 1-[(2-Oxo-1,2-dihydro-3-pyridinyl)methyl]-4-[2-[2-(cyclohexylmethyloxy)phenyl]ethyl]piperidine oxalate], the IC50 is 22.5 µM in experiment [1] (Oryctolagus cuniculus, 0.25 h) and 1.2 µM in experiment [2] (setting [4]). The ED50 in experiment [3] came out at 0.14 mg/kg.
In the same order, the values of `O=C(O)C(=O)O.O=c1[nH]cccc1CN1CCC(CCc2ccccc2CCc2ccccc2)CC1` [Example 306, 1-[(2-Oxo-1,2-dihydro-3-pyridinyl)methyl]-4-[[2-(2-phenylethyl)phenyl]ethyl]piperidine oxalate] are 1.9 µM, 1.3 µM and 0.17 mg/kg.
With `CC(C)COc1ccccc1CCC1CCN(Cc2ccc[nH]c2=O)CC1.O=C(O)C(=O)O` [Example 308, 1-[(2-Oxo-1,2-dihydro-3-pyridinyl)methyl]-4-[2-[2-(isobutyloxy)phenyl]ethyl]piperidine oxalate], the IC50 is 3.1 µM in experiment [1] (Oryctolagus cuniculus, 0.25 h) and 0.5 µM in experiment [2] (setting [4]). Also, the ED50 in experiment [3] amounted to 0.22 mg/kg.
In the same order, the values of `O=C(O)C(=O)O.O=c1[nH]cccc1CN1CCC(CCc2ccccc2OCCc2ccccc2)CC1` [Example 309, 1-[(2-Oxo-1,2-dihydro-3-pyridinyl)methyl]-4-[2-[2-(2-phenylethoxy)phenyl]ethyl]piperidine oxalate] are 6.3 µM, 1 µM and 0.19 mg/kg.
For `O=C(O)C(=O)O.O=c1[nH]cccc1CN1CCC(CCc2ccccc2OCC2CCCC2)CC1` [Example 311, 1-[(2-Oxo-1,2-dihydro-3-pyridinyl)methyl]-4-[2-[2-(cyclopentylmethyloxy)phenyl]ethyl]piperidine oxalate], the IC50 in experiment [1] (Oryctolagus cuniculus, 0.25 h) worked out at 2 µM; in experiment [2] (setting [4]), 0.7 µM. The ED50 in experiment [3] is 0.13 mg/kg.
In the same order, the values of `Cl.Cl.O=c1[nH]cccc1CN1CCC(CCc2ccccc2NCc2ccccc2)CC1` [Example 313, 1-[(2-Oxo-1,2-dihydro-3-pyridinyl)methyl]-4-[2-[2-(benzylamino)phenyl]ethyl]piperidine dihydrochloride] are 8.6 µM, 1.5 µM and 0.16 mg/kg.
For `O=c1[nH]cc(Cl)cc1CN1CCC(CCc2cccc3c2OCO3)CC1` [Example 319], in that order: 10 µM, 10.2 µM and 0.082 mg/kg.
In the same order, the values of `O=c1[nH]cc(Cl)cc1CN1CCC(CCc2ccccc2F)CC1` [Example 320] are 14.8 µM, 17 µM and 0.041 mg/kg.
With `CC(C)COc1ccccc1CCC1CCN(Cc2cc(Cl)c[nH]c2=O)CC1.O=C(O)C(=O)O` [Example 323, 1-[(5-Chloro-2-oxo-1,2-dihydro-3-pyridinyl)methyl]-4-[2-[2-(isobutyloxy)phenyl]ethyl]piperidine oxalate], the IC50 in experiment [1] (Oryctolagus cuniculus, 0.25 h) was determined as 3.9 µM; in experiment [2] (setting [4]), 4.8 µM. Moreover, the ED50 in experiment [3] turned out to be 0.083 mg/kg.
In the same order, the values of `O=C(O)C(=O)O.O=c1[nH]cccc1CN1CCC(CCc2ccccc2OC(F)(F)F)CC1` [Example 326, 1-[(2-Oxo-1,2-dihydro-3-pyridinyl)methyl]-4-[2-[2-(trifluoromethoxy)phenyl]ethyl]piperidine oxalate] are 3.98 µM, 1.9 µM and 0.18 mg/kg.
In the same order, the values of `O=c1[nH]cccc1CN1CCC(C=C(c2ccccc2)c2ccccc2)CC1` [Example 333, 1-[(2-Oxo-1,2-dihydro-3-pyridinyl)methyl]-4-(2,2-diphenyl-1-ethenyl)piperidine] are 4.9 µM, 5.4 µM and 0.15 mg/kg.
Compound `O=c1[nH]cc(F)cc1CN1CCC(/C=C/c2ccccc2F)CC1` [Example 335, 1-[(5-Fluoro-2-oxo-1,2-dihydro-3-pyridinyl)methyl]-4-[(E)-2-(2-fluorophenyl)-1-ethenyl]piperidine] displayed an IC50 in experiment [1] (Oryctolagus cuniculus, 0.25 h) of 7.8 µM. Also, the ED50 in experiment [3] is 0.034 mg/kg.
In the case of `O=C(O)C(=O)O.O=c1[nH]cccc1CN1CCC(/C=C/c2ccccc2OCc2ccccc2)CC1` [Example 338, 1-[(2-Oxo-1,2-dihydro-3-pyridinyl)methyl]-4-[(E)-2-[2-(benzyloxy)phenyl]-1-ethenyl]piperidine oxalate], the IC50 in experiment [1] (Oryctolagus cuniculus, 0.25 h) was 11.4 µM; in experiment [2] (setting [4]) it was 1.2 µM. Further, in experiment [3], the ED50 was determined as 0.19 mg/kg.
Consider `O=C(O)C(=O)O.O=c1[nH]cccc1CN1CCC(/C=C/c2ccccc2OCC2CCCCC2)CC1` [Example 343, 1-[(2-Oxo-1,2-dihydro-3-pyridinyl)methyl]-4-[(E)-2-[(2-cyclohexylmethyloxy)phenyl]-1-ethenyl]piperidine oxalate], for which half-maximal inhibition in experiment [1] (IC50) was put at 30 µM. Further, the “Ectopic Firing (ID50 mg/kg)” value in experiment [3] was 0.13 mg/kg.
Turning to `O=C(O)C(=O)O.O=c1[nH]cccc1CN1CCC(/C=C\c2ccccc2OCC2CCCCC2)CC1` [Example 344, 1-[(2-Oxo-1,2-dihydro-3-pyridinyl)methyl]-4-[(Z)-2-[(2-cyclohexylmethyloxy)phenyl]-1-ethenyl]piperidine oxalate], in experiment [1], the IC50 came to 30 µM. The “Ectopic Firing (ID50 mg/kg)” value in experiment [3] came to 0.19 mg/kg.
Take `O=c1[nH]cc(Cl)cc1CN1CCC(COc2ccc(F)cc2F)CC1` [Example 370, 1-[(5-Chloro-2-oxo-1,2-dihydro-3-pyridinyl)methyl]-4-[(2,4-difluorophenoxy)methyl]piperidine]: the IC50 was determined as 45 µM in experiment [1] (Oryctolagus cuniculus, 0.25 h) and 33.6 µM in experiment [2] (setting [4]). In experiment [3], the ED50 came out at 0.081 mg/kg.
For `O=c1[nH]cc(Cl)cc1CN1CCC(COc2cc(F)ccc2F)CC1` [Example 372, 1-[(5-Chloro-2-oxo-1,2-dihydro-3-pyridinyl)methyl]-4-[(2,5-difluorophenoxy)methyl]piperidine], in that order: 9.3 µM, 21.8 µM and 0.11 mg/kg.
For `O=c1[nH]cccc1CN1CCC(COc2ccccc2Cl)CC1` [Example 376, 1-[(2-Oxo-1,2-dihydro-3-pyridinyl)methyl]-4-[(2-chlorophenoxy)methyl]piperidine], in experiment [2] (setting [4]), the concentration for half-maximal inhibition (IC50) was determined as 20.3 µM. In experiment [3], the ED50 came to 0.07 mg/kg.
On to `O=c1[nH]c2ccccc2cc1CN1CCC(CCc2cccc3c2OCO3)CC1` [Example 380, 1-[(2-Oxo-1,2-dihydro-3-quinolinyl)methyl]-4-[2-[2,3-(methylenedioxy)phenyl]ethyl]piperidine], for which the IC50 was 8.6 µM in experiment [1] and 3.9 µM in experiment [2] (setting [5]). Besides, the “Ectopic Firing (ID50 mg/kg)” value in experiment [3] was found to be 0.1 mg/kg.
